Results reported in ChEMBL document CHEMBL1132737, “Oxygenated chalcones and bischalcones as potential antimalarial agents” (2000).

How the values were obtained:
Format in all cases: functional
Plasmodium berghei [1] = test: Parasitaemia at day 17 after combination dose at 50 mg/kg/day with 15 mg/kg/day […] over 4 days
Plasmodium berghei [2] = test: Parasitemia at day 9 after 50 mg/kg/day dose over 4 days
Plasmodium berghei [3] = test: Parasitemia at day 5 after combination dose at 50 mg/kg/day with 15 mg/kg/day […] over 4 days
Plasmodium berghei [4] = test: Parasitaemia at day 7 after combination dose at 50 mg/kg/day with 15 mg/kg/day […] over 4 days
Plasmodium berghei [5] = test: Parasitemia at day 7 after 50 mg/kg/day dose over 4 days
Plasmodium berghei [6] = test: Parasitemia at day 15 after 50 mg/kg/day dose over 4 days
Plasmodium berghei [7] = test: Parasitaemia at day 9 after combination dose at 50 mg/kg/day with 15 mg/kg/day […] over 4 days
Plasmodium berghei [8] = test: In vivo activity at day 7 against chloroquine-sensitive Plasmodium berghei infected mice (Mus musculus) at 100 mg/kg intraperitoneal dose over 4 days
Plasmodium berghei [9] = test: In vivo activity at day 5 against chloroquine-sensitive Plasmodium berghei infected mice (Mus musculus) at 100 mg/kg intraperitoneal dose over 4 days
Plasmodium berghei [10] = test: Parasitaemia at day 11 after 50 mg/kg/day dose over 4 days
Plasmodium berghei [11] = test: Parasitaemia at day 15 after combination dose at 50 mg/kg/day with 15 mg/kg/day […] over 4 days
Plasmodium berghei [12] = test: Parasitaemia at day 11 after combination dose at 50 mg/kg/day with 15 mg/kg/day […] over 4 days
Plasmodium berghei [13] = test: Parasitemia at day 13 after combination dose at 50 mg/kg/day with 15 mg/kg/day […] over 4 days
Plasmodium berghei [14] = test: Parasitaemia at day 13 after 50 mg/kg/day dose over 4 days
Plasmodium berghei [15] = test: Parasitaemia at day 5 after 50 mg/kg/day dose over 4 days
Plasmodium berghei [16] = test: Parasitemia at day 17 after 50 mg/kg/day dose over 4 days
Plasmodium berghei [17] = test: In vivo activity at day 9 against chloroquine-sensitive Plasmodium berghei infected mice (Mus musculus) at 100 mg/kg intraperitoneal dose over 4 days
Plasmodium berghei [18] = test: In vivo activity after 13 days against chloroquine-sensitive Plasmodium berghei infected mice (Mus musculus) at 100 mg/kg intraperitoneal dose over 4 days
Plasmodium berghei [19] = test: In vivo activity after 15 days against chloroquine-sensitive Plasmodium berghei infected mice (Mus musculus) at 100 mg/kg intraperitoneal dose over 4 days
Plasmodium berghei [20] = test: In vivo activity after 11 days against chloroquine-sensitive Plasmodium berghei infected mice (Mus musculus) at 100 mg/kg intraperitoneal dose over 4 days
Plasmodium berghei [21] = test: Parasitaemia at day 19 after combination dose at 50 mg/kg/day with 15 mg/kg/day […] over 4 days

Row | SMILES | Parasitaemia (Plasmodium berghei [1]) | Parasitaemia (Plasmodium berghei [2]) | Parasitaemia (Plasmodium berghei [3]) | Parasitaemia (Plasmodium berghei [4]) | Parasitaemia (Plasmodium berghei [5]) | Parasitaemia (Plasmodium berghei [6]) | Parasitaemia (Plasmodium berghei [7]) | Parasitaemia (Plasmodium berghei [8]) | Parasitaemia (Plasmodium berghei [9]) | Parasitaemia (Plasmodium berghei [10]) | Parasitaemia (Plasmodium berghei [11]) | Parasitaemia (Plasmodium berghei [12]) | Parasitaemia (Plasmodium berghei [13]) | Parasitaemia (Plasmodium berghei [14]) | Parasitaemia (Plasmodium berghei [15]) | Parasitaemia (Plasmodium berghei [17]) | Parasitaemia (Plasmodium berghei [18]) | Parasitaemia (Plasmodium berghei [19]) | Parasitaemia (Plasmodium berghei [20]) | also measured
1 | COc1ccc(/C=C/C(=O)c2ccc(OCCCOc3ccc(C(=O)/C=C/c4ccc(OC)cc4OC)cc3)cc2)c(OC)c1 | 18% | 4.8% | 1.2% | 2.3% | 2.2% | 12.5% | 3.76% | 4.7% | 3.2% | 8.4% | 13.7% | 7.7% | 9.5% | 10% | 1.3% | 8% | – | – | – | Parasitaemia (Plasmodium berghei [16]): 16%
2 | COc1ccc(/C=C/C(=O)c2ccc(OCCCCOc3ccc(C(=O)/C=C/c4ccc(OC)cc4OC)cc3)cc2)c(OC)c1 | 18% | 3.4% | 0.2% | 0.6% | 3.5% | 8.3% | 4% | 2% | 1.5% | 8% | 13% | 4.9% | 7.5% | 7.2% | 2.6% | 2.4% | 6.6% | 9.5% | 5.2% | –
3 | CC(=O)c1ccc(OCCCOc2ccc(C(=O)/C=C/c3ccc4c(c3)OCO4)cc2)cc1 | 13% | 2.2% | 0% | 0.04% | 1.8% | 11.5% | 1.96% | 0.35% | 0% | 6.7% | 7% | 3% | 5.1% | 7.8% | 0.7% | 1.7% | 3% | 3.85% | 2.75% | –
4 | COc1ccc(/C=C/C(=O)c2ccc(OCOc3ccc(C(=O)/C=C/c4ccc(OC)cc4OC)cc3)cc2)c(OC)c1 | – | – | – | – | – | – | – | 5% | 3.4% | – | – | – | – | – | – | 2% | – | – | – | –
5 | COc1ccc(/C=C/C(=O)c2ccc(OCCCCOc3ccc(C(=O)/C=C/c4ccc(OC)c(OC)c4)cc3)cc2)cc1OC | – | 2.5% | 0.002% | 0.3% | 2.5% | 13.2% | 1.8% | 0% | 0% | 5% | – | 2.7% | 7.5% | 6.9% | 1.2% | 0.7% | 1.5% | 2% | 1% | –
6 | COc1ccc(/C=C/C(=O)c2ccc(OCCCOc3ccc(C(=O)/C=C/c4ccc(OC)c(OC)c4)cc3)cc2)cc1OC | 24% | 2% | 0% | 1.3% | 2.4% | – | 1.9% | 0.05% | 0.01% | 5% | 18% | 7.6% | 12.2% | 10.4% | 0.74% | 0.6% | 1.5% | 3% | 0.9% | –
7 | COc1cccc(/C=C/C(=O)c2ccc(OCCCOc3ccc(C(=O)/C=C/c4cccc(OC)c4)cc3)cc2)c1 | 9.5% | 4.2% | 0.08% | 1.1% | 1.9% | 13% | 3% | 0.52% | 0% | 4.2% | 7% | 3% | 4.6% | 5.4% | 1.75% | 1% | 1.81% | 1.7% | 1.8% | Parasitaemia (Plasmodium berghei [21]): 13%; Parasitaemia (Plasmodium berghei [16]): 19%
8 | COc1ccc(/C=C/C(=O)c2ccc(OCCCCCCOc3ccc(C(=O)/C=C/c4ccc(OC)c(OC)c4)cc3)cc2)cc1OC | 11% | 2% | 0% | 0.06% | 1.6% | 15% | 1.8% | 0.16% | 0% | 4.3% | 7.5% | 2.3% | 6% | 7.3% | 0.8% | 1.3% | 3.1% | 4.25% | 2.1% | –
9 | CC(=O)c1ccc(OCCCCCCOc2ccc(C(=O)/C=C/c3ccc4c(c3)OCO4)cc2)cc1 | – | 4.8% | 0.02% | 2% | 3.2% | 10% | 3.2% | 2.1% | 1% | 6.5% | 8% | 3.2% | 5.5% | 9% | 2.2% | 4% | – | – | 6.3% | –
10 | COc1cccc(/C=C/C(=O)c2ccc(OCCCCCCOc3ccc(C(=O)/C=C/c4cccc(OC)c4)cc3)cc2)c1 | 11.5% | 7.9% | 0% | 0% | 3.2% | – | 0.14% | 3.4% | 2.1% | 9.5% | 6.6% | 2% | 3.6% | 13% | 1.8% | 6.8% | – | – | 11% | –
11 | COc1ccc(/C=C/C(=O)c2ccc(OCOc3ccc(C(=O)/C=C/c4ccc(OC)c(OC)c4)cc3)cc2)cc1OC | 11.6% | 5.8% | 0% | 0% | 2.3% | – | 0.3% | 5.6% | 2.8% | 10.2% | 4.4% | 0.8% | 1.4% | 14.3% | 1.5% | 7.25% | – | – | – | Parasitaemia (Plasmodium berghei [21]): 22.6%
12 | COc1cccc(/C=C/C(=O)c2ccc(OCCCCOc3ccc(C(=O)/C=C/c4cccc(OC)c4)cc3)cc2)c1 | 16% | 5.7% | 0.8% | 3.2% | 2.1% | 13.3% | 2.9% | 2% | 1.5% | 6.6% | 10% | 5% | 7.5% | 10.8% | 1.9% | 3.9% | 19% | – | 6.4% | –
